Data as given in patent US8518979B2, “Alpha-halo- and alpha-alkyl-cyclopropylcarboxy compounds and uses thereof” (Yissum Research Development Company of the Hebrew …, priority 2007, dated 2013).
Values joined by “and” are separate entries in the source; they are usually repeats but may differ in a detail not shown here. Equal values may be shown once. Read-outs that look alike come from different tables or passages of the source.

Columns and labels:
minimal neurotoxicity [1] = conditions: cited from earlier work
teratogenicity = assay: Mouse model for VPA-induced teratogenicity; conditions: unpublished results
[2] = tested on: maximal electroshock induced seizures (tonic hind limb extension); conditions: cited from earlier work
[3] = tested on: maximal electroshock induced seizures; conditions: mice models injected intraperitoneally; cited from earlier work
motor impairment = assay: Toxicity observed in mice (6 Hz 44 mA test line of Table 3); type: in vivo
Excerpt: (§1) Neurotoxicity assays are design to assess the effect of putative neurotoxicants on the normal activity of the nervous system, which can adversely disrupt or cause neuronal death, and damage other parts of the nervous system. The median neurological toxic dose (TD50) is used for quantization of neurotoxicity.

6 Hz (32 mA) seizures = assay: Psychomotor seizure (6 Hz, 32 mA) assay in mice; type: in vivo; conditions: Mus musculus
[4] = tested on: hippocampal kindled seizures; assay: Hippocampal kindling assay in rats; type: in vivo; conditions: Rattus norvegicus
Method: In a third model, the hippocampal kindling assay was used to identify new drug candidates effective for the treatment of difficult-to-control seizure types, focal seizures and complex partial seizures, as well as compounds that may be effective as mood stabilizer for treating bipolar disorder, and was conducted according to the protocol described therein.
Briefly, this test was conducted by using a bipolar stimulating electrode which was implanted in the hippocampus of rats, and the rats were kindled according to a described method. One week after implantation of the electrodes, the rats were stimulated with supra-threshold trains of 200 μA and 50 Hz for 10 seconds every 30 minutes for 6 hours on alternate days until the animals were fully kindled. […] The behavioral seizures were scored according to the following criteria (“seizure score”): stage 1—mouth and facial clonus; stage 2—stage 1 plus head nodding; stage 3—stage 2 plus forelimb clonus; stage 4—stage 3 plus rearing; and stage 5—stage 4 plus repeated rearing and falling.

[5] = tested on: metrazole induced clonic seizures; assay: Subcutaneous metrazol seizure threshold test (scMet) in rats; conditions: for ED50: Rattus norvegicus; for Fraction of rats which responded to the treatment: scMet rat model; for ScMet, fraction of rats: rat p.o, 50 mg/kg
6 Hz (44 mA) seizures = assay: Psychomotor seizure (6 Hz, 44 mA) assay in mice; type: in vivo; conditions: Mus musculus
minimal neurotoxicity [6] = assay: Neurotoxicity (gait and stance assay, TD50) in rats; type: in vivo, rat; conditions: for Toxicity, fraction of rats: rat p.o, 50 mg/kg
Method: as §1
The neurotixicity studies were conducted according to the protocol described in White, H. S., et al., in “General principles. Discovery and preclinical development of antiepileptic drugs”, 5th edition, Levy R H, Mattson R H, Meldrum B S, Perucca E. (editors); Antiepileptic drugs; Lippincott-Raven; Philadelphia: 2002. pp. 36-48.
Neurotoxicity of the α-halo-2,2,3,3-tetramethylcyclopropanecarboxy compounds of the present embodiments was assessed in rats treated therewith by oral administration and observed in the “gait and stance” assay, which assesses minimal neurotoxicity. The neurotoxicity studies were conducted according to the protocol described in White H S. et al., General principles-Discovery and preclinical development of antiepileptic drugs, in: Antiepileptic Drugs, 5th edition, R H Wilkins, Philadelphia 2002, pp. 36-48.

[7] = tested on: metrazole induced clonic seizures; conditions: cited from earlier work; for protective index (TD50/ED50): comparison compounds, seizure model not stated
[8] = tested on: maximal electroshock induced seizures (tonic hind limb extension); assay: Maximal electroshock seizure test (MES) in rats; type: in vivo; conditions: rat p.o, 50 mg/kg
neuropathic pain = conditions: spinal nerve ligated rat models; cited from earlier work
[9] = rat scMet models, literature comparison

Structure (SMILES): CC1(C)C(C(=O)Nc2nnc(S(N)(=O)=O)s2)C1(C)C [Compound VII, N-(1,3,4-thiadiazole-2-sulfonamide)-2,2,3,3-tetramethylcyclopropanecarboxamide]
- neurotoxicity (minimal neurotoxicity [1]; at 500 mg/kg doses): none-neurotoxic
- teratogenicity (teratogenicity): teratogenic
- MES-ED50 ([2]; orally treated rat models): 9.2 mg/kg
- MES-ED50 [3]: 17 mg/kg

Structure (SMILES): CC1(C)C(C)(C)C1(F)C(N)=O [Compound 1, α-fluoro-2,2,3,3-tetramethylcyclopropanecarboxamide]
- Toxicity (motor impairment): Minimal motor
- ED50 (6 Hz (32 mA) seizures): < 50 mg/kg and < 310 µmol/kg
- ED50 [4]: 29.5 mg/kg and 180 µmol/kg
- ED50 ([5]; po): 6 mg/kg and 40 µmol/kg
- protective index (TD50/ED50) ([5]; rat, in vivo, po): 19.5
- Fraction of rats which responded to the treatment ([5]; dose 2 mg/kg): 0/8
- Fraction of rats which responded to the treatment ([5]; dose 6 mg/kg): 5/8
- Fraction of rats which responded to the treatment ([5]; dose 12.5 mg/kg): 6/8
- Fraction of rats which responded to the treatment ([5]; dose 25 mg/kg): 8/8
- ED50 (6 Hz (44 mA) seizures): ~50 mg/kg and ~310 µmol/kg
- Toxicity (TD50) (minimal neurotoxicity [6]; rats, oral administration): 117 mg/kg

Structure (SMILES): CC1(C)C(C(=O)NCC(N)=O)C1(C)C [N-2,2,3,3-tetramethylcyclopropylcarbonyl-glycinamide]
- TD50 (minimal neurotoxicity [1]; oral administration to rats, literature comparison): above 500 mg/kg
- protective index (TD50/ED50) [7]: higher than 6.1
- ED50 [7, 9]: greater than 250 mg/kg

Structure (SMILES): CC1(C)C(C)(C)C1(C)C(N)=O [Compound 4, 1,2,2,3,3-pentamethylcyclopropanecarboxamide]
- MES, fraction of rats ([8]; 0.25 hours after dosing): 0/4
- MES, fraction of rats ([8]; 0.5 hours after dosing): 0/4
- MES, fraction of rats ([8]; 1.0 hours after dosing): 0/4
- MES, fraction of rats ([8]; 2.0 hours after dosing): 0/4
- MES, fraction of rats ([8]; 4.0 hours after dosing): 0/4
- ED50 ([5]; sc, read-out: ED50 (not determined quantitatively, estimated)): < 50 mg/kg
- ScMet, fraction of rats ([5]; 0.25 hours after dosing): 0/4
- ScMet, fraction of rats ([5]; 0.5 hours after dosing): 0/4
- ScMet, fraction of rats ([5]; 1.0 hours after dosing): 1/4
- ScMet, fraction of rats ([5]; 2.0 hours after dosing): 1/4
- ScMet, fraction of rats ([5]; 4.0 hours after dosing): 0/4
- Toxicity, fraction of rats (minimal neurotoxicity [6]; 0.25 hours after dosing): 0/4
- Toxicity, fraction of rats (minimal neurotoxicity [6]; 0.5 hours after dosing): 0/4
- Toxicity, fraction of rats (minimal neurotoxicity [6]; 1.0 hours after dosing): 0/4
- Toxicity, fraction of rats (minimal neurotoxicity [6]; 2.0 hours after dosing): 0/4
- Toxicity, fraction of rats (minimal neurotoxicity [6]; 4.0 hours after dosing): 0/4

Structure (SMILES): CONC(=O)C1C(C)(C)C1(C)C [Compound VI, N-methoxy-2,2,3,3-tetramethylcyclopropanecarboxamide]
- ED50 ([2]; MES tests, rats injected intraperitoneally): 57 mg/kg
- ED50 ([7]; scMet tests, rats injected intraperitoneally): 9.8 mg/kg

Structure (SMILES): CC1(C)C(C(=O)NC(N)=O)C1(C)C [TMC-Urea, 2,2,3,3-tetramethylcyclopropanecarbonyl urea]
- protective index, TD50-to-ED50 ratio ([2]; maximal electroshock (MES) tests): 18.5
- protective index (TD50/ED50) [7]: 18.5
- ED50 [7, 9]: 92 mg/kg

Structure (SMILES): CNC(=O)C1C(C)(C)C1(C)C [Compound IV, N-methyl-2,2,3,3-tetramethylcyclopropanecarboxamide]
- neurotoxicity (minimal neurotoxicity [1]; rat, in vivo): non-neurotoxic
- potency as therapeutic for neuropathic pain (neuropathic pain): equipotent to GABApentin
- protective index (TD50/ED50) [7]: 2
